Reference: patent US20250099486A1, “WOUND HEALING MEDICAMENT” (The University of Sheffield, priority 2017, published 2025)

Assays:
[1] = system: chorionic allantoic membrane (CAM); assay: CAM assay of deoxy sugar-loaded biomaterials (in ovo, implanted day 8, scored day 14); format: in vivo, chicken (Gallus domesticus); details: loaded (1 mg/ml) in cross-linked chitosan/collagen hydrogels
Experimental: Fertilized chicken (Gallus domesticus) eggs were purchased from Big Bird (Raiwind road, Lahore, Pakistan) and incubated at 37° C. from day 2 of fertilization until day 8 in a humidified egg incubator (HHD, 435, China). At day 8, a square window (1 cm^2) was cut into the shell and removed, and a 2 cm^2 piece of the electrospun scaffold or hydrogels (16% PCL electrospun scaffold/CS/PVA hydrogel/CS/collagen hydrogels) placed onto the CAM. Each egg was implanted with one scaffold or hydrogel only.
The shell window was closed with parafilm (Bemis Flexible Packaging, USA) and sealed with adhesive tape. After implantation, eggs were placed again at 37° C. in a 40% humidified incubator until day 14. At day 14, biomaterials were retrieved and the eggs were sacrificed. Angiogenesis was quantified by taking light microscope pictures just before scaffold retrieval and then blindly scored by four assessors using histological images of the retrieved materials. The number of implanted and survived eggs is given in the caption of respective CAM assay figures.
D and L isomers of three-deoxysugars (ribose, fucose and rhamnose) were loaded onto the porous freeze gelated triethyl orthoformate (4%) covalently cross-linked chitosan/collagen (1:1) hydrogels. The hydrogels were soaked in an aqueous solution of sugars (1 mg/ml) and were further lyophilized (freeze dried) to produce porous membranes. As for the electrospun scaffold, the hydrogels were grafted into the fertilized eggs at day 8 and after day 14 the eggs were sacrificed and the effect of sugars on angiogenesis was investigated.

[2] = system: endothelial cell; details: in vitro; reported by Merchan et al. 2010; cited from earlier work
[3] = system: CAM; assay: Ex-ovo CAM assay, implantation of E2 and 2dDR releasing PHBV scaffolds; format: in vivo, chicken (Gallus domesticus); details: for mean vessel count: control 23.1 (±1.24)
Experimental: (§1) All CAM experiments were carried out according to the Home Office, UK guidelines. Fertilised chicken eggs (Gallus domesticus) were purchased from Henry Stewart & Co. (MedEggs, Norwich, UK). The eggs were carefully wiped with 20% industrial methylated spirit (IMS) solution using hand paper towels in order to remove dirt and feathers from the shell. The eggs were then incubated at 37.5° C. until embryonic development day (EDD) 3, lying horizontally in an humidified egg incubator (RCOM King SURO, P&T Poultry, Powys, Wales).
(§2) On EDD3, the upper surface of the eggs were marked with a felt pen. The eggs were held horizontally (with the marked surface on top) and cracked on the edge of a 1000 ml glass beaker and kept close to the bottom surface of petri dishes. The embryos were then transferred gently into sterile petri dishes and kept in a humidified incubator (Binder, Tuttlingen, Germany) at 38° C.
Scaffolds were cut into 5.5 mm diameter circles using a laser cutting machine (Epilog Laser Cutter, Clevedon, UK) and sterilised under UV light for 1 hour prior to implantation. Two circular scaffolds were placed on CAM at EDD8. Images of the scaffolds were acquired using a digital microscope at EDD 12 and EDD14. Microinjection of rhodamine labelled lectin into the circulation was performed, CAMs were removed and fixed in 3.7% formaldehyde solution. Embryos were then sacrificed at the end of EDD14. Angiogenesis was quantified by counting all blood vessels that converged towards the graft.
Haematoxylin and Eosin (H&E) staining was performed on cell impregnated scaffolds by modifiying a standard protocol. Briefly, fixed samples were embedded in optimal cutting temperature OCT and frozen in liquid nitrogen for 3 minutes. Sections were cut 8-10 μm thick using a cryostat (Leica Biosystems Nussloch, Germany) at −20° C. Sections were then stained with haematoxylin for 90 seconds and eosin for 5 minutes respectively. Finally H&E images were acquired under a light microscope (Motic DM-B1, Xiamen, China). The total number of blood vessels adjacent to the scaffolds were quantified by counting blood vessels in H&E sections [A. Minajeva, M. Kase, M. Saretok, A. Adamson-Raieste, S. Kase, K. Niinepuu, M Vardja, T. Asser, J. Jaal, Impact of Blood Vessel Quantity and Vascular Expression of CD133 and ICAM-1 on Survival of Glioblastoma Patients, Neurosci J. 2017 (2017) 8 pages] Briefly, all discernible blood vessels adjacent to the scaffolds were counted by two independent researchers using two independent microscopes at 10× magnification from the total of six different slides for each group and six different area of interest from each slide.

[4] = E2 and 2dDR release from PHBV scaffolds in PBS; format: physicochemical; details: within 7 days
Experimental: 10% (w/w) PHBV solution loaded was prepared prior to electrospinning. 1 g of PHBV granules (Goodfellow, London, UK) were dissolved in 1 g of methanol (Fisher Scientific, Massachusetts, USA) and 8 g of DCM (Fisher Scientific, Massachusetts, USA) in a fume hood. Four 10% PHBV solutions were prepared prior to addition of substances. Finally, 25 mg E2, 50 mg of E2, 250 mg of 2dDR and 500 mg of 2dDR were then added to each solution per 1 g of PHBV. The mixtures were magnetically stirred overnight.
Scaffolds were cut into pieces so to fit into an 6-well plate, weighed and submerged in 4 ml of PBS. The E2 and 2dDR concentrations released from each group (25 mg E2, 50 mg E2, 250 mg 2dDR, 500 mg 2dDR) were measured […] using a UV-VIS spectrophotometer (Thermo Fischer Evolution 220, Massachusetts, USA) at 238 nm for 2dDR and 220 nm for E2. Absorbance values were converted into concentrations using a standard curve of known concentrations of E2 and 2dDR.

[5] = system: CAM; assay: Ex-ovo CAM assay, direct application of substances; format: in vivo, chicken (Gallus domesticus); details: over 4 days
Experimental: as §1, §2
Plastic rings (˜6.5 mm in diameter) were used as a reservoir for substances and a marker for the implantation area, were placed on the CAM, and the substances were applied as 20 μl volume onto the CAM twice a day to give a […] between EDD7 and EDD11. Images of the rings were acquired using a digital microscope at EDD11, and then 20% lens culinaris agglutinin (LCA) (Vector Laboratories, Peterborough, UK) was injected into the circulation for labelling the intravascular endothelial cells using 30G needles under a dissection microscope (Wild Heerbrugg, Heerbrugg, Switzerland). CAMs were then removed and fixed in 3.7% formaldehyde solution. Embryos were sacrificed at the end of EDD11. Fixed CAM samples were then imaged under a confocal microscope (Zeiss LSM 510 Meta, Jena, Germany) for investigating the effect of substances on the microvascular structure of the CAMs.
Blood vessels were quantified by segmentation of the images [C. Roma-Rodrigues, A. Heuer-Jungemann, A. R. Fernandes, A. G. Kanaras, P. V. Baptista, Peptide-coated gold nanoparticles for modulation of angiogenesis in vivo, IntJ Nanomedicine. 11 (2016) 2633-2639. doi: 10.2147/IJN.S108661] so as to include all discernible vessels and then counting the branch points and calculating average vessel lengths [D. Ribatti, B. Nico, A. Vacca, M. Presta, The gelatin sponge-chorioallantoic membrane assay, Nat Protoc. 1 (2006) 85-91. doi: 10.1038/nprot.2006.13, P. Brooks, A. P. Montgomery, D. Cheresh, Use of the 10-Day-Old Chick Embryo Model for Studying Angiogenesis, Integrin Protoc. 129 (1999) 257-269. doi: 10.1385/1-59259-249-X: 257] via multiple image processing steps. Firstly, the internal area of the ring was cropped, and the red, green and blue channels were split using Adobe Photoshop CS6 (ADOBE Systems Inc., San Jose, California, USA). The green channel was then imported to ImageJ (Wayne Rasband, National Institutes of Health, USA) for further analysis including unsharp mask filtering, enhancing the local contrast, noise removal and segmentation. Finally, the number of branch points was quantified using quantification software (AngioTool, National Cancer Institute, USA) (FIG. 14A) and average blood vessel lengths were calculated by using binary image histograms with known pixel/mm ratios in ImageJ (Wayne Rasband, National Institutes of Health, USA).
The percentage vascular area (VA %) of the microvasculature of CAMs were quantified using confocal images of rhodamine labelled lectin injected CAM samples as shown in FIG. 14B. To do this, images were imported to ImageJ (Wayne Rasband, National Institutes of Health, USA) and converted to binary images after filtering and smoothing processes prior to quantification. VA % was calculated using the histogram list of black and white areas in the image.
All chemicals were purchased from Sigma Aldrich unless indicated otherwise. […]

C[C@@H](O)[C@@H](O)[C@H](O)[C@H](O)C=O [Deoxy-D-rhamnose, D-rhamnose, reference compound]
angiogenic response [1]: only a marginal response

O=CC[C@@H](O)[C@H](O)[C@H](O)CO [2-DG, 2-deoxy-D-Glucose]
antiangiogenic activity [2]: inhibited endothelial capillary formation and endothelial cell migration

C[C@]12CC[C@@H]3c4ccc(O)cc4CC[C@H]3[C@@H]1CC[C@@H]2O [E2, Oestradiol, reference compound]
mean vessel count ([3]; 25 mg E2 loaded PHBV scaffolds): 49.5 (±0.92)
mean vessel count ([3]; 50 mg E2 loaded PHBV scaffolds): 37.9 (±1.05)
mean number of blood vessels adjacent to the scaffolds (H&E sections) ([3]; all concentrations, compared with controls and CAM only groups): significantly increased
number of discernible blood vessels growing towards the scaffolds in comparison with plain PHBV scaffolds ([3]; all groups of releasing PHBV scaffolds): at least doubled
total release from scaffolds, of the initial amount present in the polymer solution ([4]; 25 mg E2 per 1 g PHBV scaffold): 1.3%
total release from scaffolds, of the initial amount present in the polymer solution ([4]; 50 mg E2 per 1 g PHBV scaffold): 1.6%
increase of number of branch points compared to controls ([5]; E2 100 ng/day): 1.3 fold
increase of number of branch points compared to controls ([5]; E2 200 ng/day): 1.5 fold
percentage vascular area (VA %) of microvasculature ([5]; E2 200 ng/day, control 55.3%±3%): 79.5%±5%
increase of number of branch points compared to controls ([5]; E2 600 ng/day): 1.4 fold
increase of average vessel length compared to controls ([5]; all E2 concentrations (100, 200, 600 ng/day)): 1.2 fold

C[C@@H](O)[C@H](O)[C@H](O)[C@@H](O)C=O [Deoxy-D-fucose, D-fucose, reference compound]
angiogenic response [1]: no significant response
